Patent US20220089575A1, “FARNESOID X RECEPTOR AGONISTS AND USES THEREOF” (Metacrine, Inc., priority 2017, published 2022)

Target: T1, hFXR (Homo sapiens, UniProt Q96RI1)
T1 construct: expressed in transfected cells; host or cells: CV-1 cells
T1 sequence (Q96RI1 1-486): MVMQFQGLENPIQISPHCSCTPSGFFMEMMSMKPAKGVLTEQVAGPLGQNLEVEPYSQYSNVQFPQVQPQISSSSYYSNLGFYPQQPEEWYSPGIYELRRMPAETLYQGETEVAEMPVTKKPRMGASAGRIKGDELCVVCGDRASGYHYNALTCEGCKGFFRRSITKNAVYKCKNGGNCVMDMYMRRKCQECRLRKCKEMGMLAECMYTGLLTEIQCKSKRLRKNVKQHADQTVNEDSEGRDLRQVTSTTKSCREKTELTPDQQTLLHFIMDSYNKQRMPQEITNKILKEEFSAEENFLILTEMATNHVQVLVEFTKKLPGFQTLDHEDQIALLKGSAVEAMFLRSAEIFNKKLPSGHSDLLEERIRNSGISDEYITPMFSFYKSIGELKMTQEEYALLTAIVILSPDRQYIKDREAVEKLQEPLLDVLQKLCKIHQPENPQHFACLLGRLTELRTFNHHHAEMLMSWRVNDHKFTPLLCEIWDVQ
T1 sequence (P19793 1-462 partner): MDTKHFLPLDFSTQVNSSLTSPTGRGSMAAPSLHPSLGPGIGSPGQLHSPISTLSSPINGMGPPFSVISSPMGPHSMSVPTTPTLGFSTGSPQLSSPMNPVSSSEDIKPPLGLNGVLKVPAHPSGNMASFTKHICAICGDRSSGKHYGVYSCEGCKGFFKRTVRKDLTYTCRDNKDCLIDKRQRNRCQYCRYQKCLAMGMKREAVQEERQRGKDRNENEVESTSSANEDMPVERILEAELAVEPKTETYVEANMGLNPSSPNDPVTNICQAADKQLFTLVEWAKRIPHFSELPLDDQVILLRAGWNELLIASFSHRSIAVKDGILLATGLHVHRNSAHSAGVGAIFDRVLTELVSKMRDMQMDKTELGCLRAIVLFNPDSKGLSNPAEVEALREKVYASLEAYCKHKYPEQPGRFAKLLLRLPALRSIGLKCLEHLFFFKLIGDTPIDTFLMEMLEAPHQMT
Test: In Vitro FXR Assay (TK): TK-ECRE-luc reporter in transfected CV-1 cells
Format: cell-based
Conditions: 18 hrs, luminescence, maximum efficacy of <25% of the Fexarmine control classified as '+'
In short: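 Luciferase luminescence read-out from lysed CV-1 cells transiently co-expressing hFXR and hRXR with a TK-ECRE-luc reporter (pCMX-YFP co-transfected). Compound exposure lasted 18 h at 37 °C, 5% CO2, in medium containing charcoal super-stripped serum.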

Row | Compound | EC50
1 | COc1ccc([C@H]2CC[C@H](CN(c3cccc(-c4coc(C5CC5)n4)c3)C(=O)[C@H]3CC[C@H](NC(=O)CO)CC3)CC2)cc1C [Compound 26.16, trans-N-(3-(2-Cyclopropyloxazol-4-yl)phenyl)-4-(2-hydroxyacetamido)-N-((trans-4-(4-methoxy-3-methylphenyl)cyclohexyl)methyl) cyclohexanecarboxamide] | ≤ 250 nM
2 | COc1ccc([C@H]2CC[C@H](CN(c3cc(-c4coc(C5CC5)n4)ccn3)C(=O)[C@H]3CC[C@H](NC(=O)COC(C)=O)CC3)CC2)cc1C [Compound 26.17, 2-((trans-4-((4-(2-cyclopropyloxazol-4-yl)pyridine-2-yl)((trans-4-(4-methoxy-3-methylphenyl)cyclohexyl)methyl)carbamoyl)cyclohexyl)amino)-2-oxoethyl acetate] | ≤ 250 nM
3 | COc1ccc([C@H]2CC[C@H](CN(c3cc(-c4coc(C5CC5)n4)ccn3)C(=O)[C@H]3CC[C@H](NC(=O)CO)CC3)CC2)cc1C [Compound 26.18, trans-N-(4-(2-Cyclopropyloxazol-4-yl)pyridin-2-yl)-4-(2-hydroxyacetamido)-N-((trans-4-(4-methoxy-3-methylphenyl)cyclohexyl)methyl) cyclohexanecarboxamide] | ≤ 250 nM
4 | COc1ccc([C@H]2CC[C@H](CN(c3cccc(-c4coc(C5CC5)n4)c3)C(=O)[C@H]3CC[C@H](NC(C)=O)CC3)CC2)cc1C [Compound 26.19, trans-4-Acetamido-N-(3-(2-cyclopropyloxazol-4-yl)phenyl)-N-((trans-4-(4-methoxy-3-methylphenyl)cyclohexyl)methyl) cyclohexanecarboxamide] | ≤ 250 nM
5 | COc1ccc([C@H]2CC[C@H](CN(c3cc(-c4coc(C5CC5)n4)ccn3)C(=O)[C@H]3CC[C@H](NC(C)=O)CC3)CC2)cc1C [Compound 26.20, trans-4-Acetamido-N-(4-(2-cyclopropyloxazol-4-yl)pyridine-2-yl)-N-((trans-4-(4-methoxy-3-methylphenyl)cyclohexyl)methyl) cyclohexanecarboxamide] | ≤ 250 nM
6 | COC(=O)N[C@H]1CC[C@H](C(=O)N(C[C@H]2CC[C@H](c3ccc(OC)c(C)n3)CC2)c2cc(-c3coc(C4CC4)n3)ccn2)CC1 [Compound 26.21, Methyl (trans-4-((4-(2-cyclopropyloxazol-4-yl)pyridine-2-yl)((trans-4-(5-methoxy-6-methylpyridin-2-yl)cyclohexyl)methyl)carbamoyl)cyclohexyl)carbamate] | ≤ 250 nM
7 | COc1ccc([C@H]2CC[C@H](CN(c3cc(-c4coc(C5CC5)n4)ccn3)C(=O)[C@H]3CC[C@H](CN)CC3)CC2)nc1C [Compound 26.22, trans-4-(Aminomethyl)-N-(4-(2-cyclopropyloxazol-4-yl)pyridin-2-yl)-N-((trans-4-(5-methoxy-6-methylpyridin-2-yl)cyclohexyl)methyl) cyclohexanecarboxamide] | ≥ 1000 nM
8 | COc1ccc([C@H]2CC[C@H](CN(c3cccc(-c4cnn(C5CC5)c4)c3)C(=O)[C@H]3CC[C@H](OC(=O)NCCNC(C)=O)CC3)CC2)cc1C [Compound 26.23, trans-4-((3-(1-Cyclopropyl-1H-pyrazol-4-yl)phenyl)((trans-4-(4-methoxy-3-methylphenyl)cyclohexyl)methyl)carbamoyl)cyclohexyl (2-acetamidoethyl)carbamate] | ≤ 250 nM
9 | COc1ccc([C@H]2CC[C@H](CN(c3cccc(-c4cnn(C5CC5)c4)c3)C(=O)[C@H]3CC[C@H](OC(=O)NCCNS(C)(=O)=O)CC3)CC2)cc1C [Compound 26.24, trans-4-((3-(1-Cyclopropyl-1H-pyrazol-4-yl)phenyl)((trans-4-(4-methoxy-3-methylphenyl)cyclohexyl)methyl)carbamoyl)cyclohexyl (2-(methylsulfonamido)ethyl)carbamate] | ≤ 250 nM
10 | COC(=O)NCCNC(=O)O[C@H]1CC[C@H](C(=O)N(C[C@H]2CC[C@H](c3ccc(OC)c(C)c3)CC2)c2cccc(-c3cnn(C4CC4)c3)c2)CC1 [Compound 26.25, trans-4-((3-(1-Cyclopropyl-1H-pyrazol-4-yl)phenyl)((trans-4-(4-methoxy-3-methylphenyl)cyclohexyl)methyl)carbamoyl)cyclohexyl methyl ethane-1,2-diyldicarbamate] | ≤ 250 nM
11 | COc1ccc([C@H]2CC[C@H](CN(c3cc(-c4coc(C5CC5)n4)ccn3)C(=O)[C@H]3CC[C@H](CNS(C)(=O)=O)CC3)CC2)nc1C [Compound 26.26, trans-N-(4-(2-Cyclopropyloxazol-4-yl)pyridin-2-yl)-N-((trans-4-(5-methoxy-6-methylpyridin-2-yl)cyclohexyl)methyl)-4-(methylsulfonamidomethyl) cyclohexanecarboxamide] | ≤ 250 nM
12 | COC(=O)NC[C@H]1CC[C@H](C(=O)N(C[C@H]2CC[C@H](c3ccc(OC)c(C)n3)CC2)c2cc(-c3coc(C4CC4)n3)ccn2)CC1 [Compound 26.27, Methyl ((trans-4-((4-(2-cyclopropyloxazol-4-yl)pyridin-2-yl)((trans-4-(5-methoxy-6-methylpyridin-2-yl)cyclohexyl)methyl)carbamoyl)cyclohexyl)methyl)carbamate] | ≤ 250 nM
13 | CCOC(=O)NC[C@H]1CC[C@H](C(=O)N(C[C@H]2CC[C@H](c3ccc(OC)c(C)n3)CC2)c2cc(-c3coc(C4CC4)n3)ccn2)CC1 [Compound 26.28] | ≤ 250 nM
14 | COc1ccc([C@H]2CC[C@H](CN(c3cc(-c4coc(C5CC5)n4)ccn3)C(=O)[C@H]3CC[C@H](CNC(=O)CO)CC3)CC2)nc1C [Compound 26.29, trans-N-(4-(2-Cyclopropyloxazol-4-yl)pyridin-2-yl)-4-((2-hydroxyacetamido)methyl)-N-((trans-4-(5-methoxy-6-methylpyridin-2-yl)cyclohexyl)methyl) cyclohexanecarboxamide] | 250 to 1000 nM
15 | COc1ccc([C@H]2CC[C@H](CN(c3cc(-c4cnn(C5CC5)c4)ccn3)C(=O)[C@H]3CC[C@H](NC(C)=O)CC3)CC2)cc1C [Compound 26.30, trans-4-Acetamido-N-(4-(1-cyclopropyl-1H-pyrazol-4-yl)pyridin-2-yl)-N-((trans-4-(4-methoxy-3-methylphenyl)cyclohexyl)methyl) cyclohexanecarboxamide] | ≤ 250 nM
16 | COc1ccc([C@H]2CC[C@H](CN(c3cc(-c4cnn(C5CC5)c4)ccn3)C(=O)[C@H]3CC[C@H](NC(=O)COC(C)=O)CC3)CC2)cc1C [Compound 26.31, 2-((trans-4-(4-(1-Cyclopropyl-1H-pyrazol-4-yl)pyridin-2-yl)((trans-4-(4-methoxy-3-methylphenyl)cyclohexyl)methyl)carbamoyl)cyclohexyl)amino)-2-oxoethyl acetate] | ≤ 250 nM
17 | COc1ccc([C@H]2CC[C@H](CN(c3cc(-c4cnn(C5CC5)c4)ccn3)C(=O)[C@H]3CC[C@H](NC(=O)CO)CC3)CC2)cc1C [Compound 26.32, trans-N-(4-(1-Cyclopropyl-1H-pyrazol-4-yl)pyridin-2-yl)-4-(2-hydroxyacetamido)-N-((trans-4-(4-methoxy-3-methylphenyl)cyclohexyl)methyl) cyclohexanecarboxamide] | ≤ 250 nM
18 | COc1ccc([C@H]2CC[C@H](CN(c3cc(-c4cnn(C(C)C)c4)ccn3)C(=O)[C@H]3CC[C@H](NC(C)=O)CC3)CC2)cc1C [Compound 26.33, trans-4-Acetamido-N-(4-(1-isopropyl-1H-pyrazol-4-yl)pyridin-2-yl)-N-((trans-4-(4-methoxy-3-methylphenyl)cyclohexyl)methyl)cyclohexanecarboxamide] | ≤ 250 nM
19 | COc1ccc([C@H]2CC[C@H](CN(c3cc(-c4cnn(C(C)C)c4)ccn3)C(=O)[C@H]3CC[C@H](NC(=O)COC(C)=O)CC3)CC2)cc1C [Compound 26.34, 2-((trans-4-((4-(1-Isopropyl-1H-pyrazol-4-yl)pyridin-2-yl)((trans-4-(4-methoxy-3-methylphenyl)cyclohexyl)methyl)carbamoyl)cyclohexyl)amino)-2-oxoethyl acetate] | ≤ 250 nM
20 | COc1ccc([C@H]2CC[C@H](CN(c3cc(-c4cnn(C(C)C)c4)ccn3)C(=O)[C@H]3CC[C@H](NC(=O)CO)CC3)CC2)cc1C [Compound 26.35, trans-4-(2-Hydroxyacetamido)-N-(4-(1-isopropyl-1H-pyrazol-4-yl)pyridin-2-yl)-N-((trans-4-(4-methoxy-3-methylphenyl)cyclohexyl)methyl) cyclohexanecarboxamide] | ≤ 250 nM
